Values quoted from earlier work, collected in patent publication US10507179B2, “Formulations of levosimendan for intravenous administration as infusion or injection and of infusion concentrate” (CARINOPHARM GmbH, priority 2015, dated 2019).
In brackets after ≈: the same amount, converted by molar mass. Several values for one entry are separate records, joined by “and”; a condition that tells them apart may be missing. Equal values may be shown once.

Key:
[1] = not given; remark: listed apart in the source

For C[C@@H]1CC(=O)NN=C1c1ccc(NN=C(C#N)C#N)cc1 [Levosimendan, (−)-[[4-(1,4,5,6-tetrahydro-4-methyl-6-oxo-3-pyridazi-nyl)phenyl]hydrazono]propane dinitrile], the solubility (pH value of 2) is given as 0.02 mg/mL (≈ 71.4 µM), the “stability in aqueous solutions” value (physiological pH) is given as “not stable” and the “solubility in phosphate buffer” value (room temperature, physiological pH of 7.4) is given as 0.4 mg/mL (≈ 1430 µM). For the same compound, the pKa [1] was 6.3 and 6.26.
